Measurements: patent US11897848B2, “Crystalline forms of ozanimod and processes for preparation thereof” (RECEPTOS LLC, priority 2016, dated 2024)
Converted amounts (≈) assume the structure as drawn.

Assays:
Assay type in all cases: physicochemical
[1] = Hygroscopicity assessment by dynamic vapor sorption (DVS); details: for Weight Gain under 80% RH: DVS, 25° C.; for Hygroscopicity according to the criteria of hygroscopicity: based on weight gain under 80% RH
Procedure: Dynamic Vapor Sorption (DVS) is measured via an SMS (Surface Measurement Systems Ltd.) intrinsic DVS. Typical Parameters for DVS test are as follows: • Temperature: 25° C. • Gas and flow rate: N2, 200 mL/min • dm/dt: 0.002%/min • RH range: 0% RH to 95% RH
Dynamic vapor sorption (DVS) was applied to test hygroscopicity of Form CS9 with about 10 mg of samples. The DVS plot was substantially as depicted in FIG. 14.
Dynamic vapor sorption (DVS) was applied to test hygroscopicity of Form CS10 with about 10 mg of samples. The DVS plot is substantially as depicted in FIG. 15.
Dynamic vapor sorption (DVS) was applied to test hygroscopicity of Form CS11 with about 10 mg of samples. The DVS plot is substantially as depicted in FIG. 16.

[2] = Particle size distribution test (laser particle size analyzer, wet process); details: for MV (average particle size calculated by volume): dispersion medium Isopar G; for D10 / D50 / D90: volume distribution
Procedure: The particle size distribution test in the present disclosure is acquired by the S3500 laser particle size analyzer of Microtrac. Microtrac S3500 is equipped with the SDC (Sample Delivery Controller). The test is carried out by wet process, and the dispersion medium is Isopar G The parameters are as follow:
Certain amount of samples of Form CS9, Form CS10 and Form CS11 of ozanimod were taken for particle size distribution test.
The abbreviations used in the invention are explained as follows: • Mv: Average particle size calculated by volume. • D10: particle size which accounts for 10% of the particle size distribution (volume distribution). • D50: particle size which accounts for 50% of the particle size distribution (volume distribution), also known as the median diameter. • D90: particle size which accounts for 90% of the particle size distribution (volume distribution).

[3] = Solubility assessment in H2O, saturated solution measured by HPLC
Procedure: Form CS9 of ozanimod was suspended into H2O to obtain saturated solution. After being equilibrated for 1 h, 4 h and 24 h, concentrations of the saturated solutions were measured by HPLC.

[4] = Stability assessment in chamber with controlled temperature and relative humidity (XRPD, HPLC); details: for Stability (verdict in words): after storage for 2 weeks
Procedure: Sample of Form CS10 was placed in chamber with controlled temperature and relative humidity at 40° C./75% RH for 2 weeks, and then the solids were sampled for XRPD test. The XRPD pattern overlay was substantially as depicted in FIG. 23 (from top to bottom: XRPD pattern of ozanimod Form CS10 before and after being stored under 40° C./75% RH for 2 weeks).
Two samples of Form CS11 of ozanimod were placed in chamber with controlled temperature and relative humidity at 25° C./60% RH and 40° C./75% RH for 2 weeks. XRPD and HPLC were used to test the crystalline form and chemical purity. The XRPD overlay pattern was substantially as depicted in FIG. 24 (from top to bottom: XRPD pattern of ozanimod Form CS11 before and after being stored under 25° C./60% RH and 40° C./75% RH for 2 weeks).

Weight Gain under 80% RH [1] [%] | Hygroscopicity according to the criteria of hygroscopicity [1] | MV (average particle size calculated by volume) [2] [μm] | D10 [2] [μm] | D50 [2] [μm] | D90 [2] [μm] | Solubility in water (verdict in words) [3] | solubility at 1 h ([3]; water, thermodynamic from solid, equilibrated for 1 h) [µg/mL] | solubility at 4 h ([3]; water, thermodynamic from solid, equilibrated for 4 h) [µg/mL] | Crystalline form change by XRPD ([4]; 40° C./75% RH for 2 weeks) | Stability (verdict in words) [4] | Crystalline form change by XRPD ([4]; 25° C./60% RH for 2 weeks) | Structure (SMILES) | Chemical purity change by HPLC ([4]; 25° C./60% RH for 2 weeks) | Chemical purity change by HPLC ([4]; 40° C./75% RH for 2 weeks)
2.88 | hygroscopic | 339.9 | 50.97 | 284.3 | 728.7 | good solubility in water | 470 (≈ 1160 µM) | 360 (≈ 890 µM) | – | – | – | CC(C)Oc1ccc(-c2nc(-c3cccc4c3CC[C@@H]4NCCO)no2)cc1C#N [Form CS9, ozanimod] | – | –
1.02 | slightly hygroscopic | 317.2 | 65.87 | 254.8 | 669.0 | – | – | – | No form change | good stability | – | CC(C)Oc1ccc(-c2nc(-c3cccc4c3CC[C@@H]4NCCO)no2)cc1C#N [Form CS10, ozanimod] | – | –
0.57 | slightly hygroscopic | 137.7 | 27.13 | 110.4 | 286.6 | – | – | – | No form change | good stability | No form change | CC(C)Oc1ccc(-c2nc(-c3cccc4c3CC[C@@H]4NCCO)no2)cc1C#N [Form CS11, ozanimod] | No form change and obvious purity decrease | No form change and obvious purity decrease
